Article PMC5691623 (Viruses, 2017)

How the values were obtained:
in vitro = details: human
IAV = test: microbe, parasite or virus in culture; assay type: cell-based, Human influenza A/Udorn/307/1972 (H3N2); details: for EC50: Influenza A virus, RPE
[1] = set-up: method as in earlier work; details: cited from earlier work
[2] = tested on: IAV-infected RPE and A549 cells; assay type: cell-based, human
IAV-infected RPE cells [3] = assay type: cell-based, human
IAV-infected RPE cells [4] = assay type: cell-based, human; remark: listed apart in the source
[5] = tested on: RPE or A549 cells treated with bacterial lipopolysaccharides (LPS); test: Death of cells treated with bacterial LPS; assay type: cell-based, human; details: LPS 10 µg/ml
[6] = tested on: vRNA-transfected RPE cells; assay type: cell-based, human
mock-infected RPE cells = details: human
MERS-CoV = assay type: cell-based; details: Vero cells, 24 hpi, moi 0.1

CN(C)CC[C@H](CSc1ccccc1)Nc1ccc(S(=O)(=O)NC(=O)c2ccc(N3CCN(Cc4ccccc4-c4ccc(Cl)cc4)CC3)cc2)cc1[N+](=O)[O-] [ABT-737]
CC50 (in vitro): 350 nM | effect on viral replication (IAV): limited viral replication | EC50 (IAV): 280 nM

CC1(C)CCC(CN2CCN(c3ccc(C(=O)NS(=O)(=O)c4ccc(NCC5CCOCC5)c([N+](=O)[O-])c4)c(Oc4cnc5[nH]ccc5c4)c3)CC2)=C(c2ccc(Cl)cc2)C1 [ABT-199]
CC50 (in vitro): 4640 nM | EC50 (IAV): 3710 nM

CN(C)CC#Cc1ccc(OCCCc2sc(N3CCc4cccc(C(=O)Nc5nc6ccccc6s5)c4C3)nc2C(=O)O)c(F)c1 [A-1155463]
CC50 (in vitro): 60 nM | side effect in animals [1]: reversible thrombocytopenia | effect on viral replication (IAV): limited viral replication | EC50 (IAV): < 10 nM

COC1=CC(c2cc3ccccc3[nH]2)=N/C1=C\c1[nH]c(C)cc1C [Obatoclax, obatoclax]
rescue from ABT-263-mediated premature death [2]: rescued

Cc1c(-c2ccc(N3CCc4cccc(C(=O)Nc5nc6ccccc6s5)c4C3)nc2C(=O)O)cnn1CC12CC3CC(CC(C3)C1)C2 [A-1331852]
CC50 (in vitro): 50 nM | effect on viral replication (IAV): limited viral replication | EC50 (IAV): < 10 nM

Nc1ccn([C@@H]2O[C@H](CO)[C@@H](O)C2(F)F)c(=O)n1 [gemcitabine]
rescue from ABT-263-mediated premature death [2]: rescued

C[C@H]1C/C=C/Cc2cccc(O)c2C(=O)O[C@@H](C/C=C/NC(=O)C#Cc2ccccc2)C[C@H]1O [SaliPhe, Saliphenylhalamide]
rescue from ABT-263-mediated premature death [2]: rescued

O=C(O)[C@H]1C2CCC(CC2)[C@@H]1Nc1nc(-c2c[nH]c3ncc(F)cc23)ncc1F [JNJ-872]
rescue from ABT-263-mediated premature death [2]: rescued

CC1(C)CCC(c2ccc(Cl)cc2)=C(CN2CCN(c3ccc(C(=O)NS(=O)(=O)c4ccc(N[C@H](CCN5CCOCC5)CSc5ccccc5)c(S(=O)(=O)C(F)(F)F)c4)cc3)CC2)C1 [ABT-263]
time post infection at which premature death of infected cells was observed (IAV-infected RPE cells [3]): ≤ 12 h | ΔAUC CTG (IAV-infected RPE cells [3]): 9.9 | ΔAUC CTxG (IAV-infected RPE cells [4]): 2.5 | CC50 (in vitro): 800 nM | death of LPS-treated cells [5]: did not accelerate the death | death of vRNA-transfected cells [6]: kills vRNA-transfected (160 ng) but not mock-transfected RPE cells | time without toxicity in mock-infected cells (mock-infected RPE cells): at least 36 h | effect on MERS-CoV replication (MERS-CoV): blocks MERS-CoV replication | PFU/ml (IAV): 0.01x10^6 PFU/ml | Virus titer FC (log10) (IAV): 2.0±0.2 log10 | effect on viral replication (IAV): limited viral replication | EC50 (IAV): 80 nM
